According to paper PMC7098970, “Neurosteroids as Selective Inhibitors of Glycine Receptor Activity: Structure-Activity Relationship Study on Endogenous Androstanes and Androstenes” (Frontiers in Molecular Neuroscience, 2020):
“Also recorded” adds a separate entry of the source.

What follows are compounds tested on glycine receptor (GlyR) (assay: Glycine-induced chloride current (IGly), whole-cell patch-clamp in isolated pyramidal neurons of the rat hippocampus). Settings: 0.1 μM of steroid; 100 μM glycine; mean ± SEM, normalized.
Format: cell-based
Procedure: (§1) All experiments were conducted per the requirements of the Ministry of Public Health of the Russian Federation and were consistent with the EU directive for Use of Experimental Animals of the European Community. […] The cells were isolated from transverse hippocampal slices as described in detail elsewhere ([Vorobjev, 1991]). Briefly, the slices (200–500 μm) of Wistar rats (11–14 days of age) hippocampus or cerebellum were incubated at room temperature for at least 2 h in a solution containing the following components (in mM): 124 NaCl, 3 KCl, 2 CaCl2, 2 MgSO4, 25 NaHCO3, 1.3 NaH2PO4, 10 D-glucose, pH 7.4. The saline was continuously stirred and bubbled with carbogen (95% 0_2 + 5% CO2). Single pyramidal neurons from the hippocampal CA3 area or Purkinje cells from sagittal slices of the cerebellum were isolated by a vibrating fused glass pipette with a spherical tip.
(§2) Isolated neurons were patch clamped and then lifted into the outflow of the control bath solution. […] The substances were applied through glass capillary, 0.1 mm in diameter, which could be rapidly displaced laterally ([Vorobjev et al., 1996]). A fast perfusion technique allows a complete exchange of external solution surrounding a neuron within 20 ms. […] Transmembrane currents were recorded using a conventional patch-clamp technique in the whole-cell configuration. […] The solution in the recording pipette contained the following (in mM): 40 CsF, 100 CsCl, 0.5 CaCl2, 5 EGTA, 3 MgCl2, 4 NaATP, 5 HEPES, pH 7.3. The composition of the extracellular solution was as follows (in mM): 140 NaCl, 3 KCl, 3 CaCl2, 3 MgCl2, 10 D-glucose, 10 HEPES hemisodium, and pH 7.4. Recording of the currents was performed using EPC7 patch-clamp amplifier (HEKA Electronik, Germany). The holding potential was maintained at −70 mV. Transmembrane currents were filtered at 3 kHz, stored and analyzed with IBM-PC computer, using homemade software.
(§3) Statistical analysis was performed with the help of Prism Graphpad software. All comparisons were made with ANOVA-test using Dunnett’s multiple comparison test and Student’s unpaired t-test at a significance level of p = 0.05. N = 5–8 cells from 3 to 4 animals for every concentration. […] The meanings of asterisks (probability levels) in figures is the following: ^∗P < 0.05, ^∗∗P < 0.01. The IC50 values for steroids inhibition of the IGly and IGABA were determined using the equation: Y = 1 – [max/(1 + (IC50/C)^n)], where max is the maximum inhibition attainable, C is the concentration of steroid, IC50 is the half-maximal inhibitory concentration and n is the slope factor (Hill coefficient).
(§4) First, the ability of steroids to affect the holding current at voltage-clamp regime was tested. […] The experiments with IGly were conducted on rat hippocampal neurons, and experiments with IGABA were conducted on rat cerebellar Purkinje cells.

Structure (SMILES)	τdes/τdes control of IGly
C[C@]12CC[C@H]3[C@@H](CCC4=CC(=O)CC[C@@]43C)[C@@H]1CC[C@H]2O [Compound 5, 17α-Hydroxyandrost-4-en-3-one]	0.66 ± 0.04
C[C@]12CCC(=O)C[C@@H]1CC[C@@H]1[C@@H]2CC[C@]2(C)C(=O)CC[C@@H]12 [Compound 6, 5α-Androstane-3,17-dione]	0.65 ± 0.03
C[C@]12CC[C@H](O)CC1=CC[C@@H]1[C@@H]2CC[C@]2(C)C(=O)CC[C@@H]12 [Compound 8, 3β-Hydroxy-androst-5-en-17-one]	0.67 ± 0.05

Same assay, conditions: 10 μM compound; 100 μM glycine

Structure (SMILES)	τdes IGly (effect on time constant of desensitization) [%]
C[C@]12CC[C@H]3[C@@H](CCC4=CC(=O)CC[C@@]43C)[C@@H]1CC[C@H]2O [Compound 5, 17α-Hydroxyandrost-4-en-3-one]	−72
C[C@]12CCC(=O)C[C@@H]1CC[C@@H]1[C@@H]2CC[C@]2(C)C(=O)CC[C@@H]12 [Compound 6, 5α-Androstane-3,17-dione]	−72
C[C@]12CC[C@H](O)CC1=CC[C@@H]1[C@@H]2CC[C@]2(C)C(=O)CC[C@@H]12 [Compound 8, 3β-Hydroxy-androst-5-en-17-one]	−79

Same assay, conditions: 10 μM of steroid; 100 μM glycine; mean ± SEM, normalized

Structure (SMILES)	Ipeak/Ipeak control of IGly
C[C@]12CC[C@H]3[C@@H](CCC4=CC(=O)CC[C@@]43C)[C@@H]1CC[C@H]2O [Compound 5, 17α-Hydroxyandrost-4-en-3-one]	0.80 ± 0.04
C[C@]12CCC(=O)C[C@@H]1CC[C@@H]1[C@@H]2CC[C@]2(C)C(=O)CC[C@@H]12 [Compound 6, 5α-Androstane-3,17-dione]	0.76 ± 0.03
C[C@]12CC[C@H](O)CC1=CC[C@@H]1[C@@H]2CC[C@]2(C)C(=O)CC[C@@H]12 [Compound 8, 3β-Hydroxy-androst-5-en-17-one]	0.70 ± 0.01

Same assay, conditions: Hill fit, peak amplitude; 100 μM glycine

Structure (SMILES)	Ipeak max (maximum inhibition attainable) of IGly
C[C@]12CC[C@H]3[C@@H](CCC4=CC(=O)CC[C@@]43C)[C@@H]1CC[C@H]2O [Compound 5, 17α-Hydroxyandrost-4-en-3-one]	0.46 ± 0.09
C[C@]12CCC(=O)C[C@@H]1CC[C@@H]1[C@@H]2CC[C@]2(C)C(=O)CC[C@@H]12 [Compound 6, 5α-Androstane-3,17-dione]	0.51 ± 0.05
C[C@]12CC[C@H](O)CC1=CC[C@@H]1[C@@H]2CC[C@]2(C)C(=O)CC[C@@H]12 [Compound 8, 3β-Hydroxy-androst-5-en-17-one]	0.73 ± 0.08

Same assay, conditions: Hill fit, time constant of desensitization; 100 μM glycine

Structure (SMILES)	τdes max (maximum inhibition attainable) of IGly
C[C@]12CC[C@H]3[C@@H](CCC4=CC(=O)CC[C@@]43C)[C@@H]1CC[C@H]2O [Compound 5, 17α-Hydroxyandrost-4-en-3-one]	0.81 ± 0.11
C[C@]12CCC(=O)C[C@@H]1CC[C@@H]1[C@@H]2CC[C@]2(C)C(=O)CC[C@@H]12 [Compound 6, 5α-Androstane-3,17-dione]	0.86 ± 0.10
C[C@]12CC[C@H](O)CC1=CC[C@@H]1[C@@H]2CC[C@]2(C)C(=O)CC[C@@H]12 [Compound 8, 3β-Hydroxy-androst-5-en-17-one]	0.88 ± 0.09

Same assay, conditions: peak amplitude; 100 μM glycine

Structure (SMILES)	Ipeak Hill coefficient of IGly
C[C@]12CC[C@H]3[C@@H](CCC4=CC(=O)CC[C@@]43C)[C@@H]1CC[C@H]2O [Compound 5, 17α-Hydroxyandrost-4-en-3-one]	1.2 ± 0.34
C[C@]12CCC(=O)C[C@@H]1CC[C@@H]1[C@@H]2CC[C@]2(C)C(=O)CC[C@@H]12 [Compound 6, 5α-Androstane-3,17-dione]	1.2 ± 0.35
C[C@]12CC[C@H](O)CC1=CC[C@@H]1[C@@H]2CC[C@]2(C)C(=O)CC[C@@H]12 [Compound 8, 3β-Hydroxy-androst-5-en-17-one]	0.92 ± 0.14

Same assay, conditions: read-out: Ipeak IC50 of IGly; inhibition of peak amplitude; 100 μM glycine

Structure (SMILES)	IC50 [µM]
C[C@]12CC[C@H]3[C@@H](CCC4=CC(=O)CC[C@@]43C)[C@@H]1CC[C@H]2O [Compound 5, 17α-Hydroxyandrost-4-en-3-one]	17 ± 2.9
C[C@]12CCC(=O)C[C@@H]1CC[C@@H]1[C@@H]2CC[C@]2(C)C(=O)CC[C@@H]12 [Compound 6, 5α-Androstane-3,17-dione]	16.3 ± 2.4
C[C@]12CC[C@H](O)CC1=CC[C@@H]1[C@@H]2CC[C@]2(C)C(=O)CC[C@@H]12 [Compound 8, 3β-Hydroxy-androst-5-en-17-one]	21.3 ± 2.2

Same assay, conditions: read-out: τdes IC50 of IGly; acceleration of desensitization (decrease in τdes); 100 μM glycine

Structure (SMILES)	IC50 [µM]
C[C@]12CC[C@H]3[C@@H](CCC4=CC(=O)CC[C@@]43C)[C@@H]1CC[C@H]2O [Compound 5, 17α-Hydroxyandrost-4-en-3-one]	0.22 ± 0.08
C[C@]12CCC(=O)C[C@@H]1CC[C@@H]1[C@@H]2CC[C@]2(C)C(=O)CC[C@@H]12 [Compound 6, 5α-Androstane-3,17-dione]	0.26 ± 0.09
C[C@]12CC[C@H](O)CC1=CC[C@@H]1[C@@H]2CC[C@]2(C)C(=O)CC[C@@H]12 [Compound 8, 3β-Hydroxy-androst-5-en-17-one]	0.24 ± 0.09

Same assay, conditions: time constant of desensitization; 100 μM glycine

Structure (SMILES)	τdes Hill coefficient of IGly
C[C@]12CC[C@H]3[C@@H](CCC4=CC(=O)CC[C@@]43C)[C@@H]1CC[C@H]2O [Compound 5, 17α-Hydroxyandrost-4-en-3-one]	0.51 ± 0.15
C[C@]12CCC(=O)C[C@@H]1CC[C@@H]1[C@@H]2CC[C@]2(C)C(=O)CC[C@@H]12 [Compound 6, 5α-Androstane-3,17-dione]	0.48 ± 0.10
C[C@]12CC[C@H](O)CC1=CC[C@@H]1[C@@H]2CC[C@]2(C)C(=O)CC[C@@H]12 [Compound 8, 3β-Hydroxy-androst-5-en-17-one]	0.57 ± 0.14

The compounds below were run against T1, GABAA receptors (Rattus norvegicus, UniProt P18508+P62813+P63138) (assay: not given). Settings: not given.
T1 construct: Single pyramidal neurons from the hippocampal CA3 area or Purkinje cells from sagittal slices of the cerebellum were isolated; endogenous in cells; host or cells: acutely isolated Purkinje cells from cerebellar slices of Wistar rats, 11-14 days old
T1 sequence (P62813 28-455): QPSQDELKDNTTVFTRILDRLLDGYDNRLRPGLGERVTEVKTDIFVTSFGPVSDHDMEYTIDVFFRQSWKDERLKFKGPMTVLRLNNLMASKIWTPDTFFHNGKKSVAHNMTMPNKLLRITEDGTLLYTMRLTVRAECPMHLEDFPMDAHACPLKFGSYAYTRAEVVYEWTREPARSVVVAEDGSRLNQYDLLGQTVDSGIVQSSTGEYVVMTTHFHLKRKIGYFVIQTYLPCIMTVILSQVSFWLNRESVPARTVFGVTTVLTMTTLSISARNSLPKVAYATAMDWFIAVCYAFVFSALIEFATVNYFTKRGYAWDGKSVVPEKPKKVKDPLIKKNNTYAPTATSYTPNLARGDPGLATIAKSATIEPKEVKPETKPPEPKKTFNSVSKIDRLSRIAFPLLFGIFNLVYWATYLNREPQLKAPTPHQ
T1 sequence (P63138 25-474 limits assumed): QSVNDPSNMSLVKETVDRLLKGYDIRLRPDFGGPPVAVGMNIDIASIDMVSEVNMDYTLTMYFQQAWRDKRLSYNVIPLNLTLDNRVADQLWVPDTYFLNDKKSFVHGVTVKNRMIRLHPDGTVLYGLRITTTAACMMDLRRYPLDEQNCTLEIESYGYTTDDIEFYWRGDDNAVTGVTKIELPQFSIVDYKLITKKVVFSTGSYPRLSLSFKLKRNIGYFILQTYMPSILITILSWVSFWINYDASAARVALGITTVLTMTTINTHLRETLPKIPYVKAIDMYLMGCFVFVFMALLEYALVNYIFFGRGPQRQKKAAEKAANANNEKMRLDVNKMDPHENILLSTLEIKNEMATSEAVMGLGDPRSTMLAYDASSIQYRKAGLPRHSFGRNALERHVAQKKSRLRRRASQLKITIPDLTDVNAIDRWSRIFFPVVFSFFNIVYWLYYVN
T1 sequence (P18508 39-466): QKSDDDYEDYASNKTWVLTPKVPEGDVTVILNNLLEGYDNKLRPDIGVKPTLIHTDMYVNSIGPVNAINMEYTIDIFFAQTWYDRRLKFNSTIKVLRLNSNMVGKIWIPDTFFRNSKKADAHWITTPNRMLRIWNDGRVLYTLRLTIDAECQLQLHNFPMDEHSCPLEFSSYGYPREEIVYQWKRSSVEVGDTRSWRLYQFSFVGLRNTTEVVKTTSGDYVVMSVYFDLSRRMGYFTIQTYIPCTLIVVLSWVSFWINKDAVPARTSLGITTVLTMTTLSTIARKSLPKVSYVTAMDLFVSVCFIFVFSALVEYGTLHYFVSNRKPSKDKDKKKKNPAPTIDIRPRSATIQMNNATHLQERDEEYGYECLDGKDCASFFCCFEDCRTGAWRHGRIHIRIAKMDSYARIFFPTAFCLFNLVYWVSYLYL
Format: cell-based
Procedure: as §1, §2, §3, §4

Structure (SMILES)	Ipeak/Ipeak control of IGABA	Modulation of IGABA (peak amplitude or rate of decay/desensitization)	τdes IGABA (effect in words)	τdes/τdes control of IGABA
C[C@]12CCC(=O)C[C@@H]1CC[C@@H]1[C@@H]2CC[C@]2(C)C(=O)CC[C@@H]12 [Compound 6, 5α-Androstane-3,17-dione]	0.92 ± 0.04	did not modulate; also recorded: remained inactive; also recorded: did not change	^cNo effect	0.99 ± 0.02

Same assay, conditions: 10 μM compound; 5 μM GABA

Structure (SMILES)	τdes IGABA (effect on time constant of desensitization) [%]
C[C@]12CC[C@H](O)CC1=CC[C@@H]1[C@@H]2CC[C@]2(C)C(=O)CC[C@@H]12 [Compound 8, 3β-Hydroxy-androst-5-en-17-one]	−12

Same assay, conditions: 10 μM of steroid; 5 μM GABA

Structure (SMILES)	τdes/τdes control of IGABA
C[C@]12CC[C@H]3[C@@H](CCC4=CC(=O)CC[C@@]43C)[C@@H]1CC[C@H]2O [Compound 5, 17α-Hydroxyandrost-4-en-3-one]	0.97 ± 0.03
C[C@]12CC[C@H](O)CC1=CC[C@@H]1[C@@H]2CC[C@]2(C)C(=O)CC[C@@H]12 [Compound 8, 3β-Hydroxy-androst-5-en-17-one]	0.88 ± 0.05

Same assay, conditions: 50 μM compound; 5 μM GABA

Structure (SMILES)	Acceleration of decay (desensitization) of IGABA	Decrease in the peak amplitude of IGABA
C[C@]12CC[C@H](O)CC1=CC[C@@H]1[C@@H]2CC[C@]2(C)C(=O)CC[C@@H]12 [Compound 8, 3β-Hydroxy-androst-5-en-17-one]	23–45%	14–25%

Same assay, conditions: 50 μM of steroid; 5 μM GABA

Structure (SMILES)	Ipeak/Ipeak control of IGABA
C[C@]12CC[C@H]3[C@@H](CCC4=CC(=O)CC[C@@]43C)[C@@H]1CC[C@H]2O [Compound 5, 17α-Hydroxyandrost-4-en-3-one]	1.12 ± 0.08
C[C@]12CC[C@H](O)CC1=CC[C@@H]1[C@@H]2CC[C@]2(C)C(=O)CC[C@@H]12 [Compound 8, 3β-Hydroxy-androst-5-en-17-one]	0.75 ± 0.04

Same assay, conditions: footnote c: did not modulate IGABA up to the concentration of 50 μM; 5 μM GABA

Structure (SMILES)	τdes IGABA (effect in words)
C[C@]12CC[C@H]3[C@@H](CCC4=CC(=O)CC[C@@]43C)[C@@H]1CC[C@H]2O [Compound 5, 17α-Hydroxyandrost-4-en-3-one]	^cNo effect

Same assay, conditions: up to 50 μM compound; 5 μM GABA

Structure (SMILES)	Modulation of IGABA (peak amplitude or rate of decay/desensitization)
C[C@]12CC[C@H]3[C@@H](CCC4=CC(=O)CC[C@@]43C)[C@@H]1CC[C@H]2O [Compound 5, 17α-Hydroxyandrost-4-en-3-one]	did not modulate; also recorded: remained inactive; also recorded: did not change
